Experimental findings from patent US8637553B2, “Fluoro substituted omega-carboxyaryl diphenyl urea for the treatment and prevention of diseases and conditions” (Bayer Healthcare LLC, priority 2003, dated 2014) are described below.

One assay relates to MDA-MB-231 cells. Put plainly: MDA-MB231 proliferation assay (CellTiter-Glo). It counts as cell-based. Particulars: Homo sapiens, 72 hours. Here is the method: Human breast carcinoma cells (MDA MB-231, NCI) were cultured in standard growth medium (DMEM) supplemented with 10% heat-inactivated FBS at 37° C. in 5% CO2 (vol/vol) in a humidified incubator. Cells were plated at a density of 3000 cells per well in 90 μL growth medium in a 96 well culture dish. In order to determine T0h CTG values, 24 hours after plating, 100 μL of CellTiter-Glo Luminescent Reagent (Promega) was added to each well and incubated at room temperature for 30 minutes. Luminescence was recorded on a Wallac Victor II instrument. The CellTiter-Glo reagent results in cell lysis and generation of a luminescent signal proportional to the amount of ATP present, which, in turn is directly proportional to the number of cells present.
Test compounds are dissolved in 100% DMSO to prepare 10 mM stocks. […] The cells with and without individual test compounds were incubated for 72 hours at which time ATP dependent luminescence was measured, as described previously, to yield T72h values. Optionally, the IC50 values can be determined with a least squares analysis program using compound concentration versus percent inhibition. % Inhibition=[1−(T72h test−T0h)/(T72h ctrl−T0h)]×100, where T72h test=ATP dependent luminescence at 72 hours in the presence of test compound T72h ctrl=ATP dependent luminescence at 72 hours in the absence of test compound T0h=ATP dependent luminescence at Time Zero

The next assay deals with T1, p38 α2 (Homo sapiens, UniProt Q16539).
T1 construct: His; made in house; host or cells: E. coli
T1 sequence (Q16539 whole entry): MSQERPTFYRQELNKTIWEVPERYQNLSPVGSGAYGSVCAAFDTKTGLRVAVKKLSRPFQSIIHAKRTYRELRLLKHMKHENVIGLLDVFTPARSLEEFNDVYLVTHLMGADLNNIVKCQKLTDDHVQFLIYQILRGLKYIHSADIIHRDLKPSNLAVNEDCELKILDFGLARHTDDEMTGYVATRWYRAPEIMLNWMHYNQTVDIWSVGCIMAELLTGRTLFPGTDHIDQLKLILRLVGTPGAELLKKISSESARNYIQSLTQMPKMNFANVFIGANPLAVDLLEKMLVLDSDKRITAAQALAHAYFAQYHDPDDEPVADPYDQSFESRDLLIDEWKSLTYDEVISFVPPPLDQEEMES
Description: p38 kinase in vitro assay. Particulars: in vitro kinase biochemical assay. Here is the method:
Purified and His-tagged p38 α2 (expressed in E. Coli) was activated in vitro by MMK-6 to a high specific activity. Using a microtiter format, all reactions were conducted in 100 μL volumes with reagents diluted to yield 0.05 μg/well of activated p38 α2 and 10 μg/well of myelin basic protein in assay buffer (25 mM HEPES 7.4, 20 mM MgCl2, 150 mM NaCl). Test compounds (5 μL of a 10% DMSO solution in water) were prepared and diluted into the assay to cover a final concentration range from 5 nM to 2.5 μM. The kinase assay was initiated by addition of 25 μL of an ATP cocktail to give a final concentration of 10 μM cold ATP and 0.2 μCi [gamma-^33P] ATP per well (200-400 dpm/pmol of ATP). The plate was incubated at 32° C. for 35 min., and the reaction quenched with 7 μL of a 1 N aq HCl solution. The samples were harvested onto a P30 Filtermat (Wallac, Inc.) using a TomTec 1295 Harvester (Wallac, Inc.), and counted in a LKB 1205 Betaplate Liquid Scintillation Counter (Wallac, Inc.). Negative controls included substrate plus ATP alone. SW1353 cellular assay: SW1353 cells (human chondro-sarcoma) are seeded (1000 cells/100 μL DMEM 10% FCS/well) into 96-well plates and incubated overnight. […] Cultures are incubated for 48 h at 37° C., then supernatant IL-6 values are determined by ELISA.

Assay [1] concerns phospho-PDGFR-beta in aortic smooth muscle cells. Put plainly: pPDGFR-beta in AoSMC cells. Particulars: PDGF-BB stimulated. It counts as cell-based. Here is the method:
100K P3-P6 Aortic SMC were plated in each well of 12-well cluster in 1000 μL volume/well of SGM-2 using standard cell culture techniques. Next day, cells were rinsed with 1000 μL D-PBS once, then serum starved in 500 μL SBM (smooth muscle cell basal media) with 0.1% BSA overnight. Compounds were diluted at a dose range from (10 μM to 1 nM in 10-fold dilution steps in DMSO. Final DMSO concentration 0.1%). Remove old media by inversion into the sink quickly then add 100 μL of each dilution to corresponding well of cells for 1 h at 37° C. Cells were then stimulated with 10 ng/mL PDGF-BB ligand for 7 min at 37° C. The media is decanted and 150 μL of isotonic lysis buffer with protease inhibitor tablet (Complete; EDTA-free) and 0.2 mM Na vanadate is added. Cells are lysed for 15 min at 4° C. on shaker in cold room. Lysates are put in eppendorf tubes to which 15 μL of agarose-conjugated anti-PDGFR-beta antibody is added and incubated at 4° C. overnight. Next day, beads are rinsed in 50-volumes of PBS three times and boiled in 1×LDS sample buffer for 5 minutes. Samples were run on 3-8% gradient Tris-Acetate gels and transferred onto Nitrocellulose. Membranes were blocked in 1% BSA/TBS-T for 1 hr. before incubation in anti-phospho-PDGFR-b (Tyr-857) antibody in blocking buffer (1:1000 dilution) for 1 h. […]

In the next assay the test system is pERK in MDA-MB-231 cells. Description: Bio-Plex phospho-ERK 1/2 immunoassay (basal pERK). In kind it is cell-based. Particulars: Homo sapiens, 2 h incubation. Here is the method:
A 96 well pERK immunoassay, using laser flow cytometry (Bio-Rad) platform has been established to measure inhibition of basal pERK in breast cancer cell line. MDA-MB-231 cells were plated at 50,000 cells per well in 96 well microtitre plates in complete growth media. For effects of test compounds on basal pERK½ inhibition, the next day after plating, MDA-MB-231 cells were transferred to DMEM with 0.1% BSA and incubated with test compounds diluted 1:3 to a final concentration of 3 μM to 12 nM in 0.1% DMSO. Cells were incubated with test compounds for 2 h, washed, and lysed in Bio-Plex whole cell lysis buffer A. Samples are diluted with buffer B 1:1 (v/v) and directly transferred to assay plate or frozen at −80 C. degrees until processed. 50 μL of diluted MDA-MB-231 cell lysates were incubated with about 2000 of 5 micron Bio-Plex beads conjugated with an anti-ERK½ antibody overnight on a shaker at room temperature. The next day, biotinylated phospho-ERK½ sandwich immunoassay was performed, beads are washed 3 times during each incubation and then 50 μL of PE-strepavidin was used as a developing reagent. The relative fluorescence units of pERK½ were detected by counting 25 beads with Bio-Plex flow cell (probe) at high sensitivity. The IC50 was calculated by taking untreated cells as maximum and no cells (beads only) as background using in an Excel spreadsheet based program.

For the molecule `CNC(=O)c1cc(Oc2ccc(NC(=O)Nc3ccc(Cl)c(C(F)(F)F)c3)c(F)c2)ccn1` [Example 1, 4{4-[3-(4-chloro-3-trifluoromethylphenyl)-ureido]-3-fluorophenoxy}-pyridine-2-carboxylic acid methylamide], the IC50 in the assay with MDA-MB-231 cells is 600 nM; at p38 α2 it was 24 nM; in assay [1], 43.6 nM; in the assay on pERK in MDA-MB-231 cells it was 22 nM.
